# From US8361965B2, “Recombinant chimeric protein of neutrophil inhibitory factor and hirugen, and pharmaceutical composition thereof” (Lunan Pharmaceutical Group Corporation, priority 2008, dated 2013)
# B1: TNHH-G15/n3: recombinant TNHH with linker 1 (Gly)15 and linker 2 (GSGG)3: NIF-(Gly)15-FPRP-(GSGG)3-hirugen (protein)
# chain: MNEHNLRCPQNGTEMPGFNDSIRLQFLAMHNGYRSKLALGHISITEESESDDDDDFGFLPDFAPRASKMRYLEYDCEAEKSAYMSARNCSDSSSPPEGYDENKYIFENSNNISEAALKAMISWAKEAFNLNKTKEGEGVLYRSNHDISNFANLAWDAREKFGCAVVNCPLGEIDDETNHDGETYATTIHVVCHYPKINKTEGQPIYKVGTPCDDCSEYTKKADNTTSADPVCIPDDGVCFIGSKADYDSKEFYRFRELGGGGGGGGGGGGGGGFPRPGSGGGSGGGSGGNGDFEEIPEEYL
# How the values were obtained:
# rabbit whole blood = test: in vitro whole blood anticoagulation assay; set-up: species or system white rabbit; settings: 0.2 ml heparin sodium 1 mg/ml + 1.0 ml rabbit blood; room temperature 15 min
# Method: TNHH was diluted to 4 mg/ml, 2 mg/ml, 1 mg/ml, 0.5 mg/ml respectively with phosphate buffer solution (10 mmol/L PB, 0.15 mol/L NaCl, pH7.4). Heparin sodium was prepared to 1 mg/ml with the same buffer solution.
# Venous blood was taken from marginal ear vein of the rabbit, and rapidly added into 0#-5# tubes. 0.2 ml of the diluted TNHH samples with different concentrations was added into the 1#-4# tubes, respectively. 0.2 ml phosphate buffer solution was added into the 0# tube, which was used as a negative control. 0.2 ml heparin sodium (1 mg/ml) was added into the 5# tube, which was used as a positive control. The reagents were mixed rapidly and stored at room temperature for 15 min for observing the results.
# blood coagulation system [1] = test: effects on blood coagulation system of New Zealand rabbits in vivo (APTT, PT, TT); set-up: species or system New Zealand rabbit; PT: unit not given beside the values; APTT / TT: unit not given here
# Method: Medicaments were administrated via intravenous injection from marginal ear vein, and 1.8 ml blood was harvested from marginal ear veins at the time of before administration (0 min), and 10 min, 30 min, 60 min, 120 min and 240 min after administration, respectively (the time for injecting is 2 min). 3.2% sodium citrate (9:1) was added for anticoagulation and then mixed and centrifuged at 3000 rpm/min for 3 min. The plasma was send to Department of Clinical Laboratory, Southwest Hospital for determining blood coagulation indexes (APTT, TT and PT) with a full automatic coagulation analyzer and the difference before and after administration was obtained by comparison.
# blood coagulation system [2] = test: effects on blood coagulation system of New Zealand rabbits in vitro (APTT, PT, TT); format: biochemical, New Zealand rabbit; set-up: PT: unit not given beside the values; APTT / TT: unit not given here
# Method: Medicaments were diluted to the following concentrations for use: TNHH: 3.0 mg/ml; 1.0 mg/ml; 333 μg/ml; bivalrudin: 600 μg/ml; 200 μg/ml; 67 μg/ml; Hirudin: 660 μg/ml; 220 μg/ml; 73 μg/ml.
# The blood was sampled from six New Zealand rabbits (10×1.8 ml for each one) from marginal ear vein and added into 10 anticoagulation tubes, respectively. 3.2% sodium citrate (9:1) was added for anticoagulation.
# 20 μl anticoagulated blood was taken from each tube, followed by the addition of 20 μl above diluted medicaments for each tube. 20 μl physiological saline was added into the control tube. Samples were mixed thoroughly and centrifuged at 3000 rpm/min for 3 min, and plasma was send to Department of Clinical Laboratory, Southwest Hospital for determining blood coagulation indexes (APTT, TT and PT) with a full automatic coagulation analyzer and the difference before and after administration was obtained by comparison.
# leukocyte adhesion = test: anti-leukocyte adhesion activity, in vitro comparative analysis; format: cell-based; settings: in vitro
# [3] = tested on: platelet aggregation induced by human thrombin; test: antiplatelet aggregation assay (rabbits dosed i.v., thrombin-induced aggregation of PRP); format: in vivo, Japanese Giant Ear White Rabbits
# Method: Platelet aggregation rate was determined by puncture of the central artery of the ear before administration, and then rabbits were randomly divided into 5 groups (4 in each group) based on the platelet aggregation rate and body weight: (1) negative control group (5.12 mg mannitol/kg), (2) high dose TNHH group (4.0 mg/kg), (3) middle dose TNHH group (2.0 mg/kg), (4) low dose TNHH group (1.0 mg/kg), and (5) positive control group (0.1 mg recombinant hirudin/kg). The rabbits in each group were administered at the dose respectively via intravenous injection from the marginal ear vein. Blood samples were collected at the time of 15 min after administration (timed by stopwatch) by puncture of the central artery of the ear to determine the platelet aggregation rate. The method of platelet aggregation rate determination was described as follows: the blood samples were collected by puncture of the central artery of the ear using silicified syringe. 3.8% anticoagulant sodium citrate solution (blood: anticoagulant=9:1) was used. The sample was centrifuged at 200×g for 8 min, and the supernatant obtained was platelet-rich plasma (PRP); then the remaining part was centrifuged again at 2200×g for 10 min, and the supernatant obtained was platelet-poor plasma (PPP). The platelet in PRP was counted as approximate 4.0×10^5/mm^3. According to Born's turbidimetry, a turbidimetric tube with 200 μl PRP and a small magnetic bar was placed in a platelet aggregation instrument and incubated at 37 for 1 min. After calibrating with PPP, the platelet was induced to aggregate by adding inductive human thrombin (0.76 IU/ml) under stirring. The effect of medicaments on the aggregation of platelet was analyzed using the aggregation curve and the maximum aggregation rate obtained from the instrument. The maximum aggregation rate was calculated according to the formula below: […]
# [4] = Bivalrudin 1.50 mg/kg i.v., 0 min (before administration)
# [5] = Bivalrudin 1.50 mg/kg i.v., 10 min
# [6] = Bivalrudin 1.50 mg/kg i.v., 30 min
# [7] = Bivalrudin 1.50 mg/kg i.v., 60 min
# [8] = Bivalrudin 1.50 mg/kg i.v., 120 min
# [9] = Bivalrudin 1.50 mg/kg i.v., 240 min
# [10] = bivalrudin 0.67 μg/ml in rabbit blood
# [11] = bivalrudin 2.00 μg/ml in rabbit blood
# [12] = bivalrudin 6.00 μg/ml in rabbit blood
# [13] = Hirudin 0.50 mg/kg i.v., 0 min (before administration)
# [14] = Hirudin 0.50 mg/kg i.v., 10 min
# [15] = Hirudin 0.50 mg/kg i.v., 30 min
# [16] = Hirudin 0.50 mg/kg i.v., 60 min
# [17] = Hirudin 0.50 mg/kg i.v., 120 min
# [18] = Hirudin 0.50 mg/kg i.v., 240 min
# [19] = hirudin 0.73 μg/ml in rabbit blood
# [20] = hirudin 2.20 μg/ml in rabbit blood
# [21] = hirudin 6.60 μg/ml in rabbit blood
molecule,measurement,setting,value
heparin sodium [reference compound],Test results (blood coagulation),rabbit whole blood,not coagulated and Non-
"Bivalrudin: lyophilized powder for injection, manufactured by Chengdu Jiexun Biotechnical Co., Ltd. [reference compound]",APTT,blood coagulation system [1]; [4],40.7 ± 5.77
same,PT,blood coagulation system [1]; [4],6.87 ± 0.21
same,TT,blood coagulation system [1]; [4],15.28 ± 1.60
same,APTT,blood coagulation system [1]; [5],45.75 ± 7.20
same,PT,blood coagulation system [1]; [5],8.27 ± 0.67
same,TT,blood coagulation system [1]; [5],71.18 ± 23.37
same,APTT,blood coagulation system [1]; [6],39.33 ± 6.62
same,PT,blood coagulation system [1]; [6],7.40 ± 0.27
same,TT,blood coagulation system [1]; [6],36.12 ± 14.00
same,APTT,blood coagulation system [1]; [7],38.03 ± 5.55
same,PT,blood coagulation system [1]; [7],7.10 ± 0.15
same,TT,blood coagulation system [1]; [7],26.68 ± 7.30
same,APTT,blood coagulation system [1]; [8],32.68 ± 4.77
same,PT,blood coagulation system [1]; [8],7.02 ± 0.12
same,TT,blood coagulation system [1]; [8],15.40 ± 2.16
same,APTT,blood coagulation system [1]; [9],34.57 ± 5.56
same,PT,blood coagulation system [1]; [9],6.90 ± 0.18
same,TT,blood coagulation system [1]; [9],15.50 ± 2.36
same,APTT,blood coagulation system [2]; [10],35.12 ± 8.04
same,PT,blood coagulation system [2]; [10],7.83 ± 0.39
same,TT,blood coagulation system [2]; [10],43.22 ± 8.13
same,APTT,blood coagulation system [2]; [11],40.75 ± 8.71
same,PT,blood coagulation system [2]; [11],8.75 ± 0.52
same,TT,blood coagulation system [2]; [11],53.67 ± 9.03
same,APTT,blood coagulation system [2]; [12],55.00 ± 12.4
same,PT,blood coagulation system [2]; [12],11.08 ± 1.20
same,TT,blood coagulation system [2]; [12],85.38 ± 23.07
Hirogen: artificial dodecapeptide based on the C-terminal 53rd-64th amino acids of hirudin (NGDFEEIPEEYL) (not fully specified) [reference compound],anti-leukocyte adhesion activity,leukocyte adhesion,none
hirudin [reference compound],"aggregation ratio, Before administration",[3]; hirudin 0.1 mg/kg group,58.44 ± 4.42%
same,"aggregation ratio, 15 min after administration",[3]; hirudin 0.1 mg/kg i.v.,4.34 ± 6.88%
same,"aggregation ratio, difference","[3]; hirudin 0.1 mg/kg i.v., before vs 15 min after",54.09 ± 8.69 %
same,APTT,blood coagulation system [1]; [13],38.02 ± 6.54
same,PT,blood coagulation system [1]; [13],6.80 ± 0.28
same,TT,blood coagulation system [1]; [13],16.40 ± 1.73
same,APTT,blood coagulation system [1]; [14],39.97 ± 5.69
same,PT,blood coagulation system [1]; [14],7.27 ± 0.22
same,TT,blood coagulation system [1]; [14],112.70
same,APTT,blood coagulation system [1]; [15],37.72 ± 5.55
same,PT,blood coagulation system [1]; [15],7.01 ± 0.31
same,TT,blood coagulation system [1]; [15],84.93 ± 49.24
same,APTT,blood coagulation system [1]; [16],35.02 ± 7.59
same,PT,blood coagulation system [1]; [16],6.95 ± 0.34
same,TT,blood coagulation system [1]; [16],58.17 ± 33.19
same,APTT,blood coagulation system [1]; [17],32.05 ± 5.69
same,PT,blood coagulation system [1]; [17],6.97 ± 0.27
same,TT,blood coagulation system [1]; [17],30.42 ± 17.09
same,APTT,blood coagulation system [1]; [18],32.07 ± 5.97
same,PT,blood coagulation system [1]; [18],7.08 ± 0.26
same,TT,blood coagulation system [1]; [18],16.30 ± 2.32
same,APTT,blood coagulation system [2]; [19],37.47 ± 6.15
same,PT,blood coagulation system [2]; [19],7.33 ± 0.33
same,TT,blood coagulation system [2]; [19],50.40 ± 8.19
same,APTT,blood coagulation system [2]; [20],52.85 ± 15.88
same,PT,blood coagulation system [2]; [20],7.87 ± 0.37
same,TT,blood coagulation system [2]; [20],102.77 ± 21.90
same,APTT,blood coagulation system [2]; [21],58.43 ± 14.36
same,PT,blood coagulation system [2]; [21],9.37 ± 1.30
same,TT,blood coagulation system [2]; [21],116.40 ± 8.82
B1,anti-leukocyte adhesion activity,leukocyte adhesion,740 Unit/mg
